How the values were obtained:
oat = assay: Hydroponic oat grown with C12 in the water medium: grain composition; conditions: 10 g C12/L of water (10% C12)
Procedure: (§1) Hydroponic barley and oat grass was growth in fodder sprouting chambers at 21.5 to 23.5° C., with humidity of 65±5% and water temperature between 20° and 22° C. Grains were soaked in water until fully saturated, then drained and placed in trays or troughs, to facilitate sprouting, for 5 to 8 days. The grains were kept moist during this period. Grains were initially washed with a sterilizing solution to help minimize the risk of mold. Grass were provided with […] from day 3. C12 (0.1% as acid, 14.9% as potassium salt, 60% as sodium salt, and 25% as calcium salt) was added to the water medium in different concentrations, varying from 0%, to 2.5%, 5%, 10%, 15% and 20%. We measured grain composition at 10 g C12 in 1 L of water.

barley = assay: Hydroponic barley grown with C12 in the water medium: grain composition; conditions: 10 g C12/L of water (10% C12)
Procedure: as §1

[1] = test system: Hy-Line Brown laying hens; assay: Laying hens fed a standard diet or a diet enriched with C12 (10%): egg productivity, egg quality, yolk cholesterol; assay type: in vivo
From the text: Thirty Hy-Line Brown laying hens, 18 weeks of age, were free range-raised under natural light and dark cycle. The hens were divided into 2 groups and housed in different indoor pens (0.15 m^2/bird) equipped with feeders and drinkers, with access to open air runs (3 m^2/bird).
The diets were based on wheat and soybean meal with added dodecanedioic acid (C12) at 10% in the DAs diet, while they were free of dodecanedioic acid in the control diet. The diets were isocaloric and isonitrogenous containing 17.0% of crude protein (CP) and 2,680 kcal of metabolizable energy/kg of diet, in fact they were designed to meet or exceed the nutrient requirements for laying hens. The experimental diet was fed to the animals for 12 weeks. Feed and water were provided ad libitum throughout the entire trial.
Hens mortality or morbidity were recorded if occurred. Eggs were collected daily and egg production was calculated on per hen and per day basis. Eggs with any adhering manure were classified as dirty, and the percentage was then calculated.
Eggs were analyzed for interior and exterior physical quality, and were also examined for shell quality by specific gravity. Shell thickness (with shell membrane) of the eggs (10% of the daily egg produced) was measured by micrometer. Shell thickness was a mean value of measurements at 3 locations on the eggs (air cell; equator; and, sharp end). The breaking strength of untracked eggs was determined with a testing machine (model 1140, Instron Ltd., Bucks, UK). Egg components (albumen; yolk; and, shell) were measured by weekly breakouts on two eggs per replicate pen and expressed as percentage of egg weight.
Egg yolk color was scored using the 15-point scale (color scale from 15, dark orange to 1, light pale) of the DSM yolk color fan (DSM Nutritional Products Ltd., Basel, Switzerland).
The yolk cholesterol concentrations were determined by sampling weekly egg yolks (1 g) saponified with 20 ml of 33% ethanolic KOH in tightly-capped tubes placed in a 60° C. water bath for 1 hour. The mixture was then cooled in ice water, and 5 ml of distilled water was added. Cholesterol in unsaponifiable fractions was extracted twice with 5 ml of hexane. The resulting aliquot of hexane containing cholesterol was dried under nitrogen, re-dissolved in 5 ml of hexane, and injected into a gas chromatograph (Hewlett Packard, Palo Alto, Calif., Palo Alto, Calif., USA).
5 α-cholestane (Sigma-Aldrich) was used as an internal standard. A split inlet (using a split ratio of 100:1) was used to inject samples into a capillary column (HP-5, Agilent, Steven, Calif., USA; 30 m×0.53 mm×0.5 μm). Temperature conditions were as follows: […] oven temperature of 270° C. isothermal; detector temperature of 300° C.; and, inlet temperature of 210° C. The gas carrier was N2 kept at a constant flow rate of 1.0 ml/min.
Data were analyzed using the statistical package SPSS 13. Comparisons were made by the Mann Whitney U test since data were not normally distributed.

O=C(O)CCCCCCCCCCC(=O)O [C12, dodecanedioic acid]
Ash % (oat): 4.06 ± 0.59%
Crude Fibre % (oat): 23.40 ± 4.04%
Crude Protein % (oat): 18.70 ± 2.28%
Dry matter (%) (oat): 90.00 ± 5.70%
Starch % (oat): 31.80 ± 8.11%
Ash % (barley): 3.40 ± 0.48%
Crude Fibre % (barley): 4.42 ± 0.38%
Crude Protein % (barley): 16.20 ± 0.62%
Dry matter (%) (barley): 90.40 ± 1.14%
Starch % (barley): 44.40 ± 3.51%
Yolk color ([1]; 10% C12 enriched diet vs standard diet): lighter color of the yolk
Hen mortality or morbidity ([1]; 12 weeks of feeding): No hen mortality or morbidity was observed
Dirty eggs (%) ([1]; diet with 10% C12 for 12 weeks): 0.38 ± 0.14%
Egg mass (g/hen per day) ([1]; diet with 10% C12 for 12 weeks): 54.56 ± 5.66 g/hen per day
Egg-laying rate (%) ([1]; diet with 10% C12 for 12 weeks): 90.30 ± 4.99%
Cholesterol content ([1]; diet with 10% C12 for 12 weeks, egg yolk, gas chromatography, FIG. 3: per 100 g of egg, in mg/100 g egg): 87.00 ± 14.27
Shell thickness (mm × 10^−2) ([1]; diet with 10% C12 for 12 weeks, mean of 3 locations, with shell membrane): 0.38 ± 0.037 mm × 10^−2
content of C12 in a yolk ([1]; female, Hy-Line Brown, hen (chicken), in vivo, 12 weeks): in a yolk ranged between 0.35 and 2.1 mg.

Source: patent US20210038547A1, “NEW USES AND APPLICATIONS OF DICARBOXYLIC ACIDS” (JEMYLL LIMITED, priority 2017, published 2021)
